US9676704B2, “Pesticidal compositions and processes related thereto” (Dow AgroSciences LLC, priority 2014, dated 2017)
Like-named read-outs stand apart in the source and are kept apart here.

Tests used:
Cabbage Looper (CL) = experiment: Bioassays on CL, 128-well diet tray assay; type: in vivo; conditions: Trichoplusia ni; for mortality at 50 µg/cm2: 168 h, read-out: CL % Control (or Mortality) rating
How it was run: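 Second-instar larvae, one to five per well, were placed on artificial diet treated with 50 μg/cm^2 compound (in 90:10 acetone-water) and dried, with eight wells per compound. Trays were held at 25° C, 14:10 light-dark, for five to seven days. Percent mortality was scored per well and averaged.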

Green Peach Aphid (GPA) = experiment: Bioassays on Green Peach Aphid, cabbage seedling foliar spray; type: in vivo; conditions: Myzus persicae, 72 h, read-out: GPA % Control (or Mortality) rating
Description: Cabbage seedlings grown in 3-inch pots, with 2-3 small (3-5 cm) true leaves, were used as test substrate. The seedlings were infested with 20-50 GPA (wingless adult and nymph stages) one day prior to chemical application. Four pots with individual seedlings were used for each treatment. Test compounds (2 mg) were dissolved in 2 mL of acetone/MeOH (1:1) solvent, forming stock solutions of 1000 ppm test compound. The stock solutions were diluted 5× with 0.025% Tween 20 in water to obtain the solution at 200 ppm test compound. A hand-held aspirator-type sprayer was used for spraying a solution to both sides of […] leaves until runoff. Reference plants (solvent check) were sprayed with the diluent only containing 20% by volume of acetone/MeOH (1:1) solvent. Treated plants were held in a holding room for three days at approximately 25° C. and ambient relative humidity (RH) prior to grading. Evaluation was conducted by counting the number of live aphids per plant under a microscope. Percent Control was measured by using Abbott's correction formula (W. S. Abbott, “A Method of Computing the Effectiveness of an Insecticide” J. Econ. Entomol. 18 (1925), pp. 265-267) as follows. Corrected % Control=100*(X−Y)/X where X=No. of live aphids on solvent check plants and Y=No. of live aphids on treated plants. The results are indicated in the table entitled “Table ABC: Assay Results (F)” and “Table ABCD: Assay Results (C)” (See Table Section).

Beet Armyworm (BAW) = experiment: Bioassays on BAW, 128-well diet tray assay; type: in vivo; conditions: Spodoptera exigua; for mortality at 50 µg/cm2: 168 h, read-out: BAW % Control (or Mortality) rating
How it was run: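 Test compound was applied at 50 μg/cm^2 in 90:10 acetone-water to the artificial diet surface and dried, with eight wells per compound. One to five second-instar beet armyworm larvae were placed per well and held at 25 °C, 14:10 light-dark, for five to seven days. Percent mortality was averaged over the wells.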

[1] = system: Yellow Fever Mosquito (YFM); type: in vivo, Aedes aegypti; conditions: 15 μL of diluted 4000 ppm master solution per well, about 1 day-old larvae, 3 days
How it was run: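 About 1-day-old Aedes larvae in liver-powder water were exposed to compound diluted from 4000 ppm DMSO master stocks in water:acetone. Plates held 3 days at room temperature under a non-evaporative lid; wells were then scored for mortality, 6 replicates per compound.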

[2] = 50 μg/cm^2 on artificial diet, second instar larvae, five to seven days, 25° C.
[3] = 200 ppm foliar spray on cabbage seedlings, three days, Abbott corrected % control

Compound	mortality at 50 µg/cm2 (Cabbage Looper (CL); [2]) [%]	mortality at 200 ppm (Green Peach Aphid (GPA); [3]) [%]	mortality at 50 µg/cm2 (Beet Armyworm (BAW); [2]) [%]	YFM % Control (or Mortality) rating [1]	also measured
C[C@H](NC(=O)CC[S+](C)[O-])NC(=O)c1ccc(/C=C/C(c2cc(Cl)c(Cl)c(Cl)c2)C(F)(F)F)cc1C(F)(F)F (stereo partly drawn) [Compound P49, N-((1R)-1-(3-(methylsulfinyl)propanamido)ethyl)-4-((E)-4,4,4-trifluoro-3-(3,4,5-trichlorophenyl)but-1-en-1-yl)-2-(trifluoromethyl)benzamide]	50 to 100	0 to 80	50 to 100		
C[C@H](NC(=O)C[S+](C)[O-])NC(=O)c1ccc(/C=C/C(c2cc(Cl)c(Cl)c(Cl)c2)C(F)(F)F)cc1C(F)(F)F (stereo partly drawn) [Compound P36, N-((1S)-1-(2-(Methylsulfinyl)acetamido)ethyl)-4-((E)-4,4,4-trifluoro-3-(3,4,5-trichlorophenyl)but-1-en-1-yl)-2-(trifluoromethyl)benzamide]	50 to 100	0	50 to 100		
CN(CCNC(=O)c1ccc(/C=C/C(c2cc(Cl)c(Cl)c(Cl)c2)C(F)(F)F)cc1C(F)(F)F)C(=O)OC(C)(C)C (centres unmarked) [Compound C113, (E)-tert-butyl methyl(2-(4-(4,4,4-trifluoro-3-(3,4,5-trichlorophenyl)but-1-en-1-yl)-2-(trifluoromethyl)benzamido)ethyl)carbamate]				A (80-100)	mortality at 50 µg/cm2 (Cabbage Looper (CL)): 50 to 100%; mortality at 200 ppm (Green Peach Aphid (GPA); foliar): 0%; mortality at 50 µg/cm2 (Beet Armyworm (BAW)): 50 to 100%
C[C@H](NC(=O)CC(F)(F)F)NC(=O)c1ccc(/C=C/C(c2cc(Cl)c(Cl)c(Cl)c2)C(F)(F)F)cc1C(F)(F)F (stereo partly drawn) [Compound F2, 4-((E)-4,4,4-trifluoro-3-(3,4,5-trichlorophenyl)but-1-en-1-yl)-2-(trifluoromethyl)-N—((R)-1-(3,3,3-trifluoropropanamido)ethyl)benzamide]	50 to 100	0	50 to 100	A (80-100)	mortality at 0.05 µg/cm2 (Cabbage Looper (CL); 0.05 μg/cm^2, read-out: CL Percent control (or mortality)): 100%; mortality at 0.5 µg/cm2 (Cabbage Looper (CL); 0.5 μg/cm^2, read-out: CL Percent control (or mortality)): 100%; mortality at 5 µg/cm2 (Cabbage Looper (CL); 5 μg/cm^2, read-out: CL Percent control (or mortality)): 100%; mortality at 0.05 µg/cm2 (Beet Armyworm (BAW); 0.05 μg/cm^2, read-out: BAW Percent control (or mortality)): 100%; mortality at 0.5 µg/cm2 (Beet Armyworm (BAW); 0.5 μg/cm^2, read-out: BAW Percent control (or mortality)): 100%; mortality at 5 µg/cm2 (Beet Armyworm (BAW); 5 μg/cm^2, read-out: BAW Percent control (or mortality)): 100%
C[C@@H](NC(=O)c1ccc(/C=C/C(c2cc(Cl)c(Cl)c(Cl)c2)C(F)(F)F)cc1C(F)(F)F)NC(=O)C(C)(C)C(F)(F)F (stereo partly drawn) [Compound P33, N—((S)-1-(3,3,3-Trifluoro-2,2-dimethylpropanamido)ethyl)-4-((E)-4,4,4-trifluoro-3-(3,4,5-trichlorophenyl)but-1-en-1-yl)-2-(trifluoromethyl)benzamide]	50 to 100		50 to 100	A (80-100)	
C[C@H](NC(=O)CC(C)(C)C)NC(=O)c1ccc(/C=C/C(c2cc(Cl)c(Cl)c(Cl)c2)C(F)(F)F)cc1C(F)(F)F (stereo partly drawn) [Compound F15, N—((R)-1-(3,3-Dimethylbutanamido)ethyl)-4-((E)-4,4,4-trifluoro-3-(3,4,5-trichlorophenyl)but-1-en-1-yl)-2-(trifluoromethyl)benzamide]	50 to 100		50 to 100	A (80-100)	
